# In ChEMBL document CHEMBL3045266, “Lytic activity of l-menthol derivatives against the snow blight disease fungus, Micronectriella nivalis” (2003):
# Active and inactive are the calls of the source. The calls are words filed in the database; no cut-off is given here.
# What was measured:
# [1] = test system: Monographella nivalis var. nivalis; test: Lytic activity against Monographella nivalis var. nivalis MAFF 305031 assessed as hyphal lysis at 0.05 mg/ml after 48 hr by cotton blue staining; type: functional
# [2] = test system: Monographella nivalis var. nivalis; test: Lytic activity against Monographella nivalis var. nivalis MAFF 305031 assessed as hyphal lysis at 0.2 mg/ml after 48 hr by cotton blue staining; type: functional
# [3] = test system: Monographella nivalis var. nivalis; test: Lytic activity against Monographella nivalis var. nivalis MAFF 305031 assessed as hyphal lysis after 48 hr by cotton blue staining; type: functional, organism-based
# [4] = test system: Monographella nivalis var. nivalis; test: Lytic activity against Monographella nivalis var. nivalis MAFF 305031 assessed as hyphal lysis at 0.025 to 0.2 mg/ml after 48 hr by cotton blue staining; type: functional, organism-based
Compound,Activity [1] [%],Activity [2] [%],Activity [3],Activity [4]
"CC(C)[C@@H]1C[C@H](O)[C@@H](C)C[C@H]1O [(-)-(1S,3R,4S,6S)-6-HYDROXYMENTHOL]",57.1,85,Dose-dependent effect,
"CC(=O)O[C@@H]1C[C@@](C)(O)CC[C@H]1C(C)C [(-)-(1S,3R,4S)-1-HYDROXYMENTHYL 3-MONOACETATE]",,66,,Active
CC(C)[C@@H]1CC[C@@H](C)C[C@H]1O [LEVOMENTHOL],,45.7,,
C[C@H]1C[C@@H](O)[C@H](C(C)(C)O)C[C@@H]1O,68.1,81.9,Dose-dependent effect,
"CC(C)[C@@H]1CC[C@](C)(O)C[C@H]1O [(-)-(1S,3R,4S)-1-HYDROXYMENTHOL]",,63.9,Dose-dependent effect,
CC(=O)O[C@H]1C[C@@H](C(C)C)[C@H](OC(C)=O)C[C@@H]1C,,91.5,,Active
CC(=O)O[C@H]1C[C@@H](C(C)(C)O)[C@H](OC(C)=O)C[C@@H]1C,,95.2,,Active
CC(=O)O[C@@H]1C[C@H](C)CC[C@H]1C(C)C,,51.2,,Active
